Laboratory results published in patent US20240141294A1, “CGMP COMPLIANT PRODUCTION AND EXPANSION OF PLASMACYTOID DENDRITIC CELLS FROM HEMATOPOIETIC STEM AND PROGENITOR CELLS” (AARHUS UNIVERSITET, priority 2021, published 2024).

System: HSPC-pDCs
Experiment: RNA-sequencing of HSPC-pDCs generated with or without ascorbic acid
Assay type: cell-based, human
Description: HSPCs were thawed and 1×10^5 cells were seeded in DC medium with or without supplementation of ascorbic acid (AA). Following 16 days of differentiation with or without AA in the medium, pDCs were isolated by immunomagnetic depletion of non-pDCs, and HSPCs-pDCs were then primed for 72 hours with IFN-β/γ. Following priming, HSPC-pDCs were stored in RNAprotect Cell Reagent (Qiagen) at −80° C. until total RNA was extracted using the RNeasy Plus Micro Kit (Qiagen), which efficiently eliminates genomic DNA without the need for DNase treatment. The total RNA was send to BGI Europe for RNA-seq. Here, a non-stranded & polyA-selected mRNA library was prepared from the total RNA and subjected to PE100 sequencing using the BGISEQ platform. The samples generated on average about 4.84 Gb bases per sample. Low quality reads were filtered and the remaining reads were mapped to the genome with an average mapping ratio with the reference genome at 92.74%, the average gene mapping ratio at 79.90%. In total, 18,412 genes were identified. Gene expression was calculated based on the reads, differentially expressed genes and gene ontology analyses were analyzed on BGI's software analysis platform Dr. Tom. HSPCs were thawed and 1×10^5 cells were seeded in DC medium with or without supplementation of ascorbic acid (AA). Following 16 days of differentiation with or without AA in the medium, pDCs were isolated by immunomagnetic depletion of non-pDCs, and HSPCs-pDCs were then primed for 72 hours with IFN-β/γ. Following priming, HSPC-pDCs were stored in RNAprotect Cell Reagent (Qiagen) at −80 degrees until total RNA was extracted using the RNeasy Plus Micro Kit (Qiagen), which efficiently eliminates genomic DNA without the need for DNase treatment. The total RNA was send to BGI Europe for RNA-seq. Here, a non-stranded & polyA-selected mRNA library was prepared from the total RNA and subjected to PE100 sequencing using the BGISEQ platform. The samples generated on average about 4.84 Gb bases per sample. Low quality reads were filtered and the remaining reads were mapped to the genome with an average mapping ratio with the reference genome at 92.74%, the average gene mapping ratio at 79.90%. In total, 18,412 genes were identified. Gene expression was calculated based on the reads, differentially expressed genes and gene ontology analyses were analyzed on BGI's software analysis platform Dr. Tom.

[1] = condition with AA, |log 2FC|>=1 and Qvalue <=0.05

O=C1O[C@H]([C@@H](O)CO)C(O)=C1O [ascorbic acid] was tested, and the “number of downregulated genes” value [1] was 334 genes, the “number of upregulated genes” value [1] was 916 genes and the “Log2 (+AA/−AA)” value (gene ADA2, Qvalue 2.90E−08) was 0.759. For the same compound, the “+AA FPKM” value (gene ADA2, −AA FPKM 117.7033) was 197.7367 FPKM, the “Log2 (+AA/−AA)” value (gene ALOX5AP, Qvalue 0.002016945) was 0.793 and the “+AA FPKM” value (gene ALOX5AP, −AA FPKM 210) was 364 FPKM. The “Log2 (+AA/−AA)” value (gene ANXA2, Qvalue 9.39E−07) was 1.658, the “+AA FPKM” value (gene ANXA2, −AA FPKM 106) was 333 FPKM and the “Log2 (+AA/−AA)” value (gene APP, Qvalue 0.015253176) was 0.696. The “+AA FPKM” value (gene APP, −AA FPKM 133) was 215 FPKM, the “Log2 (+AA/−AA)” value (gene BRI3, Qvalue 0.00802755) was 0.724 and the “+AA FPKM” value (gene BRI3, −AA FPKM 216) was 358 FPKM. The “Log2 (+AA/−AA)” value (gene C1QA, Qvalue 0.002254892) was 1.342, the “+AA FPKM” value (gene C1QA, −AA FPKM 91) was 230 FPKM and the “Log2 (+AA/−AA)” value (gene C1QB, Qvalue 0.011037205) was 1.137. For the same compound, the “+AA FPKM” value (gene C1QB, −AA FPKM 147) was 323 FPKM, the “Log2 (+AA/−AA)” value (gene C1QC, Qvalue 0.002547556) was 1.551 and the “+AA FPKM” value (gene C1QC, −AA FPKM 126) was 365 FPKM. The “Log2 (+AA/−AA)” value (gene C1orf162, Qvalue 0.038404809) was 0.529, the “+AA FPKM” value (gene C1orf162, −AA FPKM 178) was 256 FPKM and the “Log2 (+AA/−AA)” value (gene CD68, Qvalue 3.20E−09) was 1.365. For the same compound, the “+AA FPKM” value (gene CD68, −AA FPKM 240) was 619 FPKM, the “Log2 (+AA/−AA)” value (gene CD74, Qvalue 3.24E−08) was 0.841 and the “+AA FPKM” value (gene CD74, −AA FPKM 5008) was 8923 FPKM. The “Log2 (+AA/−AA)” value (gene CD81, Qvalue 0.002330558) was 1.451, the “+AA FPKM” value (gene CD81, −AA FPKM 85) was 235 FPKM and the “Log2 (+AA/−AA)” value (gene CHI3L1, Qvalue 0.024834793) was 2.178. The “+AA FPKM” value (gene CHI3L1, −AA FPKM 108) was 496 FPKM, the “Log2 (+AA/−AA)” value (gene CTSB, Qvalue 6.81E−09) was 1.920 and the “+AA FPKM” value (gene CTSB, −AA FPKM 96) was 363 FPKM. For the same compound, the “Log2 (+AA/−AA)” value (gene CTSD, Qvalue 1.73E−06) was 1.460, the “+AA FPKM” value (gene CTSD, −AA FPKM 323) was 893 FPKM and the “Log2 (+AA/−AA)” value (gene CTSH, Qvalue 2.00E−04) was 1.227. The “+AA FPKM” value (gene CTSH, −AA FPKM 116) was 271 FPKM, the “Log2 (+AA/−AA)” value (gene CTSS, Qvalue 1.80E−04) was 0.939 and the “+AA FPKM” value (gene CTSS, −AA FPKM 126) was 242 FPKM. The “Log2 (+AA/−AA)” value (gene CTSZ, Qvalue 3.93E−08) was 1.002, the “+AA FPKM” value (gene CTSZ, −AA FPKM 232) was 462 FPKM and the “Log2 (+AA/−AA)” value (gene CYBB, Qvalue 0.018453508) was 0.807. For the same compound, the “+AA FPKM” value (gene CYBB, −AA FPKM 184) was 322 FPKM, the “Log2 (+AA/−AA)” value (gene DEFA1, Qvalue 6.38E−05) was 5.728 and the “+AA FPKM” value (gene DEFA1, −AA FPKM 20) was 1047 FPKM. For the same compound, the “Log2 (+AA/−AA)” value (gene DEFA3, Qvalue 0.001704486) was 4.431, the “+AA FPKM” value (gene DEFA3, −AA FPKM 27) was 593 FPKM and the “Log2 (+AA/−AA)” value (gene DEFA4, Qvalue 1.65E−08) was 4.651. The “+AA FPKM” value (gene DEFA4, −AA FPKM 39) was 975 FPKM, the “Log2 (+AA/−AA)” value (gene EVI2B, Qvalue 0.01888367) was 0.294 and the “+AA FPKM” value (gene EVI2B, −AA FPKM 193) was 236 FPKM. For the same compound, the “Log2 (+AA/−AA)” value (gene FCER1G, Qvalue 0.033270138) was 0.509, the “+AA FPKM” value (gene FCER1G, −AA FPKM 961) was 1367 FPKM and the “Log2 (+AA/−AA)” value (gene FLNA, Qvalue 0.011692048) was 0.372. The “+AA FPKM” value (gene FLNA, −AA FPKM 160.4000) was 206.4233 FPKM, the “Log2 (+AA/−AA)” value (gene FTH1, Qvalue 0.00845252) was 1.289 and the “+AA FPKM” value (gene FTH1, −AA FPKM 1395) was 3417 FPKM. For the same compound, the “Log2 (+AA/−AA)” value (gene GRINA, Qvalue 0.006989716) was 0.718, the “+AA FPKM” value (gene GRINA, −AA FPKM 130) was 214 FPKM and the “Log2 (+AA/−AA)” value (gene GRN, Qvalue 0.015829898) was 0.695. The “+AA FPKM” value (gene GRN, −AA FPKM 432) was 696 FPKM, the “Log2 (+AA/−AA)” value (gene HLA-DMB, Qvalue 0.022417743) was 0.717 and the “+AA FPKM” value (gene HLA-DMB, −AA FPKM 188) was 307 FPKM. The “Log2 (+AA/−AA)” value (gene HLA-DPA1, Qvalue 6.34E−04) was 0.763, the “+AA FPKM” value (gene HLA-DPA1, −AA FPKM 1038) was 1750 FPKM and the “Log2 (+AA/−AA)” value (gene HLA-DPB1, Qvalue 0.003235049) was 0.785. The “+AA FPKM” value (gene HLA-DPB1, −AA FPKM 227) was 388 FPKM, the “Log2 (+AA/−AA)” value (gene HLA-DQA1, Qvalue 0.03140587) was 1.374 and the “+AA FPKM” value (gene HLA-DQA1, −AA FPKM 161) was 414 FPKM. For the same compound, the “Log2 (+AA/−AA)” value (gene HLA-DRB1, Qvalue 1.76E−04) was 1.122, the “+AA FPKM” value (gene HLA-DRB1, −AA FPKM 1106) was 2401 FPKM and the “Log2 (+AA/−AA)” value (gene HLA-DRB3, Qvalue 0.018823029) was 1.224. The “+AA FPKM” value (gene HLA-DRB3, −AA FPKM 159) was 365 FPKM, the “Log2 (+AA/−AA)” value (gene IFI27, Qvalue 3.56E−04) was 4.638 and the “+AA FPKM” value (gene IFI27, −AA FPKM 15) was 377 FPKM. For the same compound, the “Log2 (+AA/−AA)” value (gene IFITM3, Qvalue 6.61E−06) was 1.496, the “+AA FPKM” value (gene IFITM3, −AA FPKM 494) was 1383 FPKM and the “Log2 (+AA/−AA)” value (gene IL2RG, Qvalue 0.001778062) was 0.785. For the same compound, the “+AA FPKM” value (gene IL2RG, −AA FPKM 122) was 209 FPKM, the “Log2 (+AA/−AA)” value (gene ITGB2, Qvalue 9.28E−04) was 0.599 and the “+AA FPKM” value (gene ITGB2, −AA FPKM 433) was 654 FPKM. For the same compound, the “Log2 (+AA/−AA)” value (gene LGALS3, Qvalue 5.07E−04) was 1.667, the “+AA FPKM” value (gene LGALS3, −AA FPKM 62.3833) was 199.3967 FPKM and the “Log2 (+AA/−AA)” value (gene LGALS3BP, Qvalue 5.08E−05) was 1.001. For the same compound, the “+AA FPKM” value (gene LGALS3BP, −AA FPKM 155) was 310 FPKM, the “Log2 (+AA/−AA)” value (gene MX1, Qvalue 0.026353098) was 2.341 and the “+AA FPKM” value (gene MX1, −AA FPKM 42) was 212 FPKM. The “Log2 (+AA/−AA)” value (gene NCF1, Qvalue 0.015338721) was 0.659, the “+AA FPKM” value (gene NCF1, −AA FPKM 131) was 207 FPKM and the “Log2 (+AA/−AA)” value (gene PRDX1, Qvalue 0.009710824) was 1.094. For the same compound, the “+AA FPKM” value (gene PRDX1, −AA FPKM 106) was 227 FPKM, the “Log2 (+AA/−AA)” value (gene PSAP, Qvalue 7.31E−04) was 0.802 and the “+AA FPKM” value (gene PSAP, −AA FPKM 600) was 1044 FPKM. For the same compound, the “Log2 (+AA/−AA)” value (gene RETN, Qvalue 0.035172121) was 0.766, the “+AA FPKM” value (gene RETN, −AA FPKM 244) was 414 FPKM and the “Log2 (+AA/−AA)” value (gene S100A11, Qvalue 0.024890893) was 0.525. The “+AA FPKM” value (gene S100A11, −AA FPKM 732) was 1054 FPKM, the “Log2 (+AA/−AA)” value (gene SERPING1, Qvalue 2.30E−05) was 1.387 and the “+AA FPKM” value (gene SERPING1, −AA FPKM 181) was 471 FPKM. For the same compound, the “Log2 (+AA/−AA)” value (gene SOD2, Qvalue 0.017321675) was 1.145, the “+AA FPKM” value (gene SOD2, −AA FPKM 129) was 301 FPKM and the “Log2 (+AA/−AA)” value (gene TYMP, Qvalue 0.016368204) was 0.679. For the same compound, the “+AA FPKM” value (gene TYMP, −AA FPKM 348) was 553 FPKM and the “number of TLR7 and TLR9 pathway genes statistically significantly expressed” value (of 54 selected genes, AA in media during HSPC-pDC generation) was 17 genes.
